Test results from patent US20240216395A1, “19-NOR C3,3-DISUBSTITUTED C21 -N-PYRAZOLYL STEROID FOR USE IN TREATING MAJOR DEPRESSIVE DISORDER AND […]” (priority 2021, published 2024).

Key:
[1] = system: adult female subjects with severe postpartum depression (PPD); assay: Phase 3 PPD study (NCT02978326): safety, TEAEs and NNH; type: in vivo, human
Experimental: Safety Endpoints: Safety and tolerability of study drug was evaluated by frequency of adverse events; severity, relatedness, and seriousness of adverse events; clinical laboratory measures, vital signs, ECGs; and concomitant medication usage. Suicidality was monitored using the C-SSRS.
Adverse events were coded using Medical Dictionary for Regulatory Activities (MedDRA™) Version 19.1 or higher. […] The incidence of adverse events was also presented by maximum severity and relationship to study drug. Vital signs, clinical laboratory measures, ECG, concomitant medication usage, and C-SSRS data was summarized by treatment, where applicable. Out-of-range safety endpoints could be categorized as low or high, where applicable. Safety data was summarized and examined for possible relationships between subject characteristics and plasma Compound (1) concentrations, as appropriate. Suicidality data collected using the C-SSRS at baseline and at each visit during the active Treatment Period was listed for all subjects. The C-SSRS listings included behavior type and/or category for suicidal ideation and suicidal behavior of the C-SSRS.
Sustained Response or Remission was defined as continued categorization of a Responder/Remitter at both days 15 and 45. Tolerability and safety outcomes included number needed to harm (NNH) for discontinuation due to an AE, as well as individual safety events of interest. NNH was calculated for (1) AEs with incidence ≥2% with Compound (1) and higher rate than placebo, and (2) the proportion of patients in each treatment arm discontinuing the study drug due to an AE. 95% confidence intervals (CIs) were calculated based upon Wilson score intervals.

[2] = system: adult female subjects with severe postpartum depression (PPD); assay: Phase 3 placebo-controlled study of Compound (1) 30 mg QD for 14 days in PPD (NCT02978326, ROBIN): efficacy and post hoc analyses; type: in vivo, human
Experimental: Example 4. A Multicenter, Randomized, Double-Blind, Parallel-Group, Placebo-Controlled Study Evaluating the Efficacy, Safety, and Pharmacokinetics of Compound (1) in the Treatment of Adult Female Subjects with Severe Postpartum Depression
This was a multicenter, randomized, double-blind, parallel-group, placebo-controlled study of the efficacy, safety, and pharmacokinetics of Compound (1) in adult subjects diagnosed with severe PPD.
Randomized subjects received 30 mg QD of study drug (Compound (1) Capsules or placebo). Those subjects who could not tolerate 30 mg QD will received 20 mg QD for the remainder of the Treatment Period. Subjects who experienced intolerable adverse events (AEs) at the 20 mg QD dose level could be discontinued from study treatment at the discretion of the Investigator. Subjects were instructed to take the study drug with food. Study drug was self-administered by subjects in the evening (8:00 pm±30 min) on an outpatient basis for the entire 14-day Treatment Period. Study drug administration was monitored via a follow-up call from the site each evening (within approximately 1 hour following the scheduled evening dose) on Days 1 to 14.
The primary efficacy endpoint was the change from baseline in HAM-D total score at the end of the Treatment Period (Day 15). The HAM-D total score was calculated as the sum of the 17 individual item scores.
Secondary endpoints included: • Change from baseline in the HAM-D total score at all time points other than Day 15; • HAM-D Response defined as a 50% or greater reduction from baseline in HAM-D total score; • HAM-D Remission defined as a HAM-D total score of ≤7; • Change from baseline in MADRS total score at Day 15 and other time points; • CGI-I Response defined as “very much improved” or “much improved”; • Change from baseline in HAM-A total score at Day 15 and other time points; • Changes from baseline in HAM-D subscales and individual item scores at Day 15 and other time points
The change from baseline in HAM-D total score was analyzed using a mixed effects model for repeated measures (MMRM); the model included center, treatment, baseline HAM-D total score, assessment time point, and time point-by-treatment as explanatory variables. All post-baseline time points were included in the model. The primary comparison was between Compound (1) and placebo at the 15-day time point. Model-based point estimates (e.g., least squares [LS] means), 95% confidence intervals, and p-values were reported. An unstructured covariance structure was used to model the within-subject errors. Continuous secondary and other variables were analyzed using similar methods.
Binary efficacy endpoints, including responder and remission endpoints, were summarized and analyzed using the generalized estimating equation method.
As indicated in Example 4, women (N=151), ages 18-45, ≤6 months postpartum, diagnosed with PPD (defined as a major depressive episode with onset in the 3rd trimester or ≤4 weeks postpartum), and a baseline HAMD-17 total score ≥26, were randomized to study drug in an outpatient setting.
Patients were randomized 1:1 to receive oral Compound (1) 30 mg or placebo once daily for 14 days, with 4 weeks follow-up. The change from baseline (CFB) vs placebo in HAMD-17 at Day 15 was the primary endpoint. Treatment emergent adverse events (TEAEs) were assessed throughout the study.
Post hoc analyses explored concurrent anxiety and depression improvement using a combination of scales at Days 15 and 45: (1) HAMD-17≤7+HAM-A≤7, or (2) MADRS ≤10+HAM-A≤7. Depression improvement was defined as either a HAMD-17 total score ≤7, or a MADRS total score […]. Improvement in anxiety symptoms was defined as a HAM-A total score ≤7.
CFB in HAMD-17 total score was evaluated using the least-squares mean from a mixed effect model for repeated measures. […]

`C[C@@]1(O)CC[C@H]2[C@H](CC[C@@H]3[C@@H]2CC[C@]2(C)[C@@H](C(=O)Cn4cc(C#N)cn4)CC[C@@H]32)C1` [Compound (1), 1-(2-((3R,5R,8R,9R,10S,13S,14S,17S)-3-hydroxy-3,13-dimethylhexadecahydro-1H-cyclopenta[a]phenanthren-17-yl)-2-oxoethyl)-1H-pyrazole-4-carbonitrile] was tested, and the “Loss of consciousness or syncope” value ([1]; 30 mg) was “no reports of loss of consciousness or syncope”, the “NNH vs placebo: AE leading to treatment discontinuation” value ([1]; 30 mg) was 78 (ns) and the “NNH vs placebo: Diarrhoea” value ([1]; 30 mg) was 28 (ns). For the same compound, the “NNH vs placebo: Dizziness” value ([1]; 30 mg) was 46 (ns), the “NNH vs placebo: Dry mouth (Gastrointestinal disorders)” value ([1]; 30 mg) was 26 (ns) and the “NNH vs placebo: Dry mouth (under Infections and infestations)” value ([1]; 30 mg) was 41 (ns). For the same compound, the “NNH vs placebo: Fatigue” value ([1]; 30 mg) was 41 (ns), the “NNH vs placebo: Pain in extremity” value ([1]; 30 mg) was 84 (ns) and the “NNH vs placebo: Sedation” value ([1]; 30 mg) was 20 (ns). For the same compound, the “NNH vs placebo: Somnolence” value ([1]; 30 mg) was 23 (ns), the “NNH vs placebo: Upper respiratory tract infection” value ([1]; 30 mg) was 16 (ns) and the Overall tolerability ([1]; 30 mg) was “generally well tolerated”. For the same compound, the Diarrhoea ([1]; 30 mg (N = 78)) was 5 (6.4%) n (%), the Dizziness ([1]; 30 mg (N = 78)) was 6 (7.7%) n (%) and the “Dry mouth (Gastrointestinal disorders)” value ([1]; 30 mg (N = 78)) was 3 (3.8%) n (%). For the same compound, the “Dry mouth (listed under Infections and infestations)” value ([1]; 30 mg (N = 78)) was 3 (3.8%) n (%), the Fatigue ([1]; 30 mg (N = 78)) was 3 (3.8%) n (%) and the Pain in extremity ([1]; 30 mg (N = 78)) was 2 (2.6%) n (%). For the same compound, the Sedation ([1]; 30 mg (N = 78)) was 4 (5.1%) n (%), the Somnolence ([1]; 30 mg (N = 78)) was 12 (15.4%) n (%) and the “Subjects with an AE leading to treatment discontinuation” value ([1]; 30 mg (N = 78)) was 1 (1.3%) n (%). The “Upper respiratory tract infection” value ([1]; 30 mg (N = 78)) was 6 (7.7%) n (%), the “Patients with a TEAE whose TEAEs were mild and moderate in severity” value ([1]; clinical trial of Example 4) was 94% and the “HAMD-17 early insomnia item mean reduction from baseline” value [2] was −1.3. The “HAMD-17 late insomnia item mean reduction from baseline” value [2] was −1.3, the “HAMD-17 middle insomnia item mean reduction from baseline” value [2] was −1.3 and the “EPDS-3A least square mean CFB” value ([2]; Day 8) was −2.2. For the same compound, the “Concurrent improvement HAMD-17 ≤ 7 and HAM-A ≤ 7, OR (95% CI) vs placebo” value ([2]; Day 15) was 2.75 (1.30, 5.84), the “Concurrent improvement MADRS ≤ 10 and HAM-A ≤ 7, OR (95% CI) vs placebo” value ([2]; Day 15) was 2.35 (1.15, 4.80) and the “LS mean difference vs placebo (as printed after HAMD-17 CFB)” value ([2]; Day 15) was −2.4. The “MADRS Remission rate” value ([2]; Day 15) was 54.1%, the “MADRS Response rate” value ([2]; Day 15) was 73.0% and the “HAMD-17 total score CFB” value ([2]; Day 15 (primary endpoint)) was −17.8. The “Concurrent improvement HAMD-17 ≤ 7 and HAM-A ≤ 7, OR (95% CI) vs placebo” value ([2]; Day 45) was 3.45 (1.66, 7.16), the “Concurrent improvement MADRS ≤ 10 and HAM-A ≤ 7, OR (95% CI) vs placebo” value ([2]; Day 45) was 3.09 (1.50, 6.36) and the “EPDS-3A least square mean CFB” value ([2]; Day 45) was −3.6. The “HAM-A Remission rate” value ([2]; day 3) was 27.0%, the “HAMD-17-Ins CFB, Compound (1)-placebo difference” value ([2]; day 3) was −0.841 and the “HAMD-17 A/S least squares mean CFB” value ([2]; day 3) was −3.8. For the same compound, the “HAM-A Response rate” value ([2]; day 8) was 69.3%, the “EPDS remission (<13) rate” value ([2]; day 15) was 64% and the “HAMD-17 A/S Response rate” value ([2]; day 15) was 68.9%. For the same compound, the “HAMD-17 Remission rate” value ([2]; day 15) was 45%, the “HAMD-17 Response rate” value ([2]; day 15) was 72% and the “NNT for EPDS remission <13” value ([2]; day 15) was 6. The “NNT, rapid outcomes” value ([2]; day 15) was 5, the “HAMD-17 A/S least squares mean CFB” value ([2]; day 45) was −5.7 and the “NNT, sustained outcomes” value ([2]; day 45) was 5. The “PHQ-9 total score least squares mean decrease” value ([2]; day 45) was −11.8, the “SF-36v2 domains (SF, MH, PF, RP, BP) and MCS vs placebo” value ([2]; day 45) was “statistically significant improvements” and the “Sustained HAMD-17 Remission rate” value ([2]; days 15 and 45) was 37%. The “Sustained HAMD-17 Response rate” value ([2]; days 15 and 45) was 59%.
